Assay results taken from US9464291B2, “Methods and compositions for the treatment of cancer” (University of South Alabama, priority 2012, dated 2016).
pIC50: −log10 of the molar value. “And” between values parts separate entries of the source, which are not always exact repeats. Equal values may be shown once. “Also recorded” adds a separate entry of the source. Read-outs that look alike come from different tables or passages of the source.

Experiments:
[1] = test system: ERCC1, XPD, XRCC1; assay: ERCC1, XPD, XRCC1 mRNA / protein levels in A2780-CP70 cells; format: cell-based, human
[2] = test system: c-jun (Ser 63, Ser 73, Thr 91, Thr 93); conditions: A2780-CP70; 3-5 hr after cisplatin treatment; cited from earlier work
[3] = test system: A2780-CP70 cells; assay: Cisplatin cell growth / cell killing curves in A2780-CP70 cells; format: cell-based, human; conditions: cisplatin alone (lipofectamine only / control cells)
Protocol: A2780-CP70 cells were transfected with 0.07 μg/well anti-Gli1 shRNA construct or control. Transfected cells were treated with 0 μM, 10 μM, 30 μM, and 100 μM cisplatin at 24 hr post-transfection. Percent cell growth was determined relative to control cells. […] In another experiment, A2780-CP70 cells were transfected with 0.02 μg/well or 0.07 μg/well anti-Gli1 shRNA construct. Transfected cells were treated with 0 μM, 2 μM, 5 μM, 10 μM, 30 μM, and 50 μM cisplatin at 24 hr post-transfection. Percent cell growth was determined relative to control cells (FIG. 52B).
Control cells were treated with cisplatin only. Percent cell growth was determined relative to control cells.

[4] = test system: ERCC1, XPD, XRCC1; conditions: cells treated with cisplatin only; cited from earlier work
[5] = test system: A2780-CP70 cells; conditions: cisplatin-resistant A2780-CP70; cited from earlier work
[6] = test system: c-jun (Ser 63, Ser 73, Thr 91, Thr 93); assay: c-jun protein phosphorylation, Western blot, A2780-CP70 cells; format: cell-based, human; conditions: 72 hr observation
Protocol: Protein levels for c-jun, c-fos, phosphorylated c-jun (Ser 63), phosphorylated c-jun (Ser 73), and phosphorylated c-jun (Thr 91, Thr 93) were tested in cytosolic, nuclear, and whole cell fractions at 0 hr, 6 hr, 24 hr, 48 hr, and 72 hr. Internal controls for cytosolic and nuclear fractions included α-tubulin and histone deacetylase 3.
Phosphorylation of c-jun in A2780-CP70 cells transfected with anti-GLI1 shRNA construct was assessed using Western blot analysis. Protein levels for c-jun, phosphorylated c-jun (Ser 63), phosphorylated c-jun (Ser 73), and phosphorylated c-jun (Thr 91, Thr 93) were examined at 0 hr, 6 hr, 24 hr, 48 hr, and 72 hr.
A2780-CP70 cells were treated with an IC50 dose of cisplatin and an IC50 dose of anti-Gli1 shRNA.

[7] = test system: c-jun; assay: c-jun mRNA (semi-quantitative PCR) and protein (Western blot) in A2780-CP70 cells; format: cell-based, human; conditions: A2780-CP70
Protocol: Controls included α-tubulin and histone deacetylase 3. C-jun antibody recognizes non-phosphorylated c-jun protein.
c-jun and c-fos mRNA expression was examined in A2780-CP70 cells transfected with anti-GLI1 shRNA construct at 6 hr, 24 hr, 48 hr, and 72 hr post-transfection using semi-quantative PCR analysis (FIG. 41).
A2780-CP70 cells were transfected with an IC50 dose of anti-Gli1 shRNA (treated) construct or vector (control). Total intracellular c-jun mRNA and c-jun protein was measured at 6 hr, 24 hr, 48 hr, and 72 hr.
C-jun mRNA and protein levels were further examined in cisplatin-resistant A2780-CP70 cells treated with an IC50 dose of anti-Gli1 shRNA. FIG. 78 depicts mRNA levels (panel A) and protein levels (panel B) in cells at 6, 24, 48, and 72 hours post-treatment.

N.N.[Cl][Pt][Cl] [cisplatin]
time of highest ERCC1, XPD, XRCC1 mRNA levels after cisplatin exposure ([1]; A2780-CP70, cyclopamine pretreatment vs cisplatin alone): 4 to 6 h | increase of ERCC1, XPD, and XRCC1 protein expression levels ([1]; cells treated with cisplatin): 5 fold | expected rise of ERCC1 (as would XPD and XRCC1) ([1]; cisplatin alone (unpublished data)): more than 6 fold | peak c-jun phosphorylation over baseline [2]: 15 fold | pIC50 [3]: 4.52 and 4.55 | expected increase in ERCC1 mRNA levels [4]: 6 fold | pIC50 [5]: ~4.40 | c-jun phosphorylation at Ser63 [6]: increases specifically at Ser63 and Ser73 | c-jun phosphorylation at Thr91/93 [6]: do not change significantly; also recorded: did not significantly change | time of peak c-jun level ([7]; IC50 dose of agent): 6 h | c-jun protein expression ([7]; IC50 dose of cisplatin): increased substantial
